According to article PMC13053910, “Covalent Protein Inhibitors via Tyrosine and Tryptophan Conjugation with Cyclic Imine Mannich Electrophiles” (Angewandte Chemie (International Ed. in English), 2026):
Non-standard residues stand in square brackets, D forms with d. Residues, ends and D or L forms follow the SMILES beside them. *: point of attachment. Benzoyl(4-OPh) = O=C(c1ccc(Oc2ccccc2)cc1)*; Lys(Et2) = CCN(CC)CCCC[C@H](N)C(=O)O; Gly(cPent) = N[C@H](C(=O)O)C1CCCC1

Experiments:
CBX8 ChD = target: CBX8 ChD; design: method as in PMID 31755685, PMID 29309209; settings: prior work ref 47, 48; cited from earlier work
[1] = test system: HOXA9 gene expression in THP1 cells; assay: qRT-PCR analysis of HOXA9 gene expression in THP1 cells; type: cell-based, Human; settings: 48 h
Procedure: Figure 7 Cellular activity of covalent, cyclic imine inhibitors to CBX8. a) qRT‐PCR analysis of HOXA9 gene expression in THP1 cells after 48 h of compound treatment at the indicated dose. N = 3. Error bars represent SD. Statistical significance was calculated using Student's t‐test. ** = p < 0.01, **** = p < 0.0001, b) qRT‐PCR analysis of HOXA9 gene expression in THP1 cells treated with increasing doses of compound for 48 h. N = 3. Error bars represent SD.
Figure S24. Cellular activity of covalent, cyclic imine inhibitors to CBX8. qRT-PCR analysis of HOXA9 gene expression in THP1 cells after 48 h of compound treatment at the indicated dose. N = 3. Error bars represent s.d. Statistical significance determined by Student’s T test. * = p <0.05, ** = p < 0.01, *** = p < 0.001, **** = p < 0.0001.
2.4 Cell Culture Cell line, Media and Culture Conditions HEK293T cells were cultured in Dubecco’s Modified Essential Media (DMEM), 10% fetal bovine serum (FBS, JR Scientific), 1% glutagro (Corning), 1% penicillin/streptomycin (Corning), 1% sodium pyruvate (Corning). Human THP1 cells were cultured in RPMI (Gibco), 10% FBS (J R Scientific), 1% Sodium pyruvate (Invitrogen), 1% Pen/Strep (Invitrogen), 1% Glutamax (Thermo Scientific), 0.1% 2-mercaptoethanol.
Cells were harvested after 48 h for RNA extraction. […] SYBR Green Mastermix (Thermo Scientific) was used for quantitative PCR. […]

[2] = Reaction of cyclic imine Mannich or sulfur fluoride electrophiles with Ac-Tyr-NHMe (HPLC, LC/MS); type: physicochemical; settings: PBS pH 7, 37 °C; for reactivity (t1/2): electrophile 5 mM, N‐acetyl‐l‐tyrosine methyl amide 100 mM; for second‐order rate constant k2 with N‐Ac‐Tyr‐NHMe: pseudo‐first‐order conditions
Procedure: To identify an appropriate warhead, we synthesized or purchased a collection of cyclic imines and incubated them with N‐acetyl‐L‐tyrosine methylamide (Ac‐Tyr‐NHMe) in PBS pH 7 at 37 °C (Table 1). The reactivity was quantified by UV integration on HPLC with LC/MS confirmation of product identity (Figure S1). […] The hydrolysis kinetics of imine 2 were characterized at pD 6 and 7.5 by NMR (Figure S3). […] The Mannich reaction mechanism involves a charged iminium intermediate, and the reaction is frequently catalyzed by Bronsted acids.^[ [36], [37] ^]
(§1) Figure 2 Second‐order rate constants for select cyclic imines and a sulfonyl fluoride with aromatic nucleophiles. Reactions were conducted under pseudo‐first‐order conditions with an excess of one reactant, as indicated. The reduction in the concentration of the limiting reactant was measured at various time points by HPLC analysis.
Figure S2: Second order rate constant determination. Reaction of (A) imine 1 (5 mM) with N-Ac-Tyr-NHMe (100 mM) at 37 °C or (B) at R.T. (C) imine 2 (5 mM) with N-Ac-Tyr-NHMe (100 mM) at 37 °C (D) imine 1 (5 mM) with indole-3-butyrate (100 mM) at 37 °C (E) imine 1 (10 mM) with 1 mM 1H-pyrrole-1-propionate (F) iminium 5 (5 mM) with N-Ac-Tyr-NHMe (100 mM) at 37 °C (G) imine 4 (5 mM) with N-Ac-Tyr-NHMe (100 mM) at 37 °C. (H) imine 11 (5 mM) with N-Ac-Tyr-NHMe (100 mM) at 37 °C. (I) imine 13 (5 mM) with N-Ac-Tyr-NHMe (100 mM) at 37 °C.
5.1 General procedure for determination of second order rate constants N-acetyl-l-tyrosine methyl amide (Ac-Tyr-NHMe) (100 mM) was incubated with 5 mM imine 1 in PBS (pH 7) at 37 °C or R.T..

[3] = pH 7 and 37 °C ref 39; cited from earlier work
CBX8 chromodomain (ChD) = target: T1, CBX8 chromodomain (ChD) (Homo sapiens, UniProt Q9HC52); assay: Non-directed labeling of CBX8 ChD with cyclic imine 1 (mass spectrometry); type: binding; settings: 1 (50 µM), CBX8 ChD (50 µM), 10 h
T1 construct: CBX chromodomain constructs (addgene plasmid #25158 (CBX2), and #62514 (CBX8, provided by Cheryl Arrowsmith)); 6His; host or cells: E. coli (BL21 CodonPlus RIL or Rosetta 2)
T1 sequence (Q9HC52 11-69 limits assumed): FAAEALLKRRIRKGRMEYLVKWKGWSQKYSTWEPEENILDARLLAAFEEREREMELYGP
Description: Our interest in this chemistry was to improve inhibitors of the chromodomains (ChD) of the CBX family of epigenetic proteins, which have proven challenging to inhibit selectively or with drug‐like small molecules.^[ [47] ^] The CBX ChDs bind a trimethylated lysine (Kme3) side chain on histone tails via cation‐pi interactions with the aromatic cage in the ChD. Our initial hypothesis was that the aromatic cage tryptophan residues would show increased reactivity to Mannich electrophiles, as they function naturally to donate electron density to the electron‐poor methyl groups of Kme3. To test this, 1 (50 µM) was incubated for 10 h with the CBX8 chromodomain (ChD) (50 µM), and labeling was assessed by mass spectrometry (Figure S11).
Figure S11. […] Cyclic imine 1 ([…]) was incubated with 50 µM CBX8 ChD in PBS (pH=7, 0.02% Tween20) buffer at R.T. for 16 hours overnight. Labeled protein was precipitated using cold MeOH:CHCl3 at the ratio of MeOH:CHCl3:Protein = 3:0.5:1, followed with two methanol washes. Protein pellet was air dried after the last wash resuspensed in water containing 0.1% formic acid and 100 mM ammonium acetate. Protein labeling was characterized by LC/MS (Unmodified CBX8 control is indicated in red, and CBX8 labeled with cyclic imine is indicated in green).

[4] = Stability of warheads and inhibitors (solid, PBS, hydrolysis); type: physicochemical; settings: solid, room temperature
Procedure: To be suitable for chemical probe and therapeutic applications, the warhead should show good stability. In general, we found the iminolactam warheads to be quite stable. Compound 1 was stable as a solid at room temperature for over 3 months. […] After 24‐h in aqueous buffer, compounds were treated with sodium cyanoborohydride. […] The synthetic strategy of in situ formation of imines by periodate treatment was pursued to avoid concerns of warhead reactivity with the ligand itself to either the peptide backbone or the phenoxyphenyl aryl group. This appears to have been unnecessary, at least for the iminolactam warhead. […] The more reactive ester imine may be forming semi‐stable cyclized products with the amide backbone, which have been observed previously with peptide aldehydes.^[ [51], [52] ^] Due to these issues, we selected compound P1b for further characterization.

[5] = Reaction of imine 1 with 1H-pyrrole-1-propionate (pyrrolated lysine mimic), rate constant; type: physicochemical; settings: imine 10 mM, 1 mM 1H-pyrrole-1-propionate
Procedure: as §1, with “analysis. Rates of imine 1 with N‐Ac‐Tyr‐NMe, indole‐3‐butyric acid, and 1H‐pyrrole‐1‐propionic acid and compounds 4, 11, and 13 with N‐Ac‐Tyr‐NMe were measured. […]” for “analysis.”
(§2) To assess the selectivity for tyrosine side chains, we tested the reactivity of 1 with additional compounds, including β‐mercaptoethanol, imidazole, isopropanol, n‐butylamine, propionic acid, 3‐methyl indole, and N‐ethyl pyrrole. […] While partially stable under LC/MS conditions, the N,S‐thioaminal product is readily reversible.^[ [41] ^] […] We determined a second‐order rate constant of 5.9 × 10^−2 M^−1 s^−1 for the reaction of 1 with 1H‐pyrrole‐1‐propionate (Figures 2 and S2). […]

[6] = Reaction of imine 1 with indole-3-butyrate (tryptophan mimic), rate constant; type: physicochemical; settings: imine 5 mM, indole-3-butyrate 100 mM, 37 °C
Procedure: as §1, with “analysis. Rates of imine 1 with N‐Ac‐Tyr‐NMe, indole‐3‐butyric acid, and 1H‐pyrrole‐1‐propionic acid and compounds 4, 11, and 13 with N‐Ac‐Tyr‐NMe were measured. […]” for “analysis.”
as §2

IC50 [1] [nM] | stable as a solid at room temperature [4] | Compound | Kd (CBX8 ChD) [nM] | reactivity (t1/2) [2] [h] | second‐order rate constant k2 with N‐Ac‐Tyr‐NHMe [2] [M⁻¹ s⁻¹] | hydrolysis half‐life [3] [h] | labeling of CBX8 ChD by imine alone (CBX8 chromodomain (ChD)) | second‐order rate constant k2 with 1H‐pyrrole‐1‐propionate [5] [M⁻¹ s⁻¹] | second‐order rate constant k2 with indole‐3‐butyrate [6] [M⁻¹ s⁻¹]
> 22000 |  | CC[C@H](C)[C@H](NC(=O)[C@@H](NC(=O)c1ccc(Oc2ccccc2)cc1)C1CCCC1)C(=O)N[C@@H](CCCCN(CC)CC)C(=O)N[C@@H](CO)C(N)=O [SW2_110A, reference compound] ({Benzoyl(4-OPh)}-[Gly(cPent)]I[Lys(Et2)]S-NH2) | 800 |  |  |  |  |  | 
 |  | NCCc1ccc(S(=O)(=O)F)cc1 [compound 13, 4‐(2‐aminoethyl)‐benzenesulfonyl fluoride, reference compound] |  | 0.28 ± 0.02 | 0.0069 | 6 |  |  | 
 | over 3 months | O=C1C=NC2CCCCC2N1 (centres unmarked) [compound 1] |  | 8 ± 0.3 | 0.00024 |  | distribution of unlabeled, singly, doubly, and triply labeled protein indicative of random labeling | 0.059 | 0.00011
